Assay results published in patent publication US20230338463A1, “ICD PEPTIDE AND USE THEREOF FOR HAVING CYTOTOXIC ACTIVITY ON CANCER CELLS” (NATIONAL TSING HUA UNIVERSITY, priority 2022, published 2023).
Non-standard residues stand in square brackets, D forms with d. Residues, ends and D or L forms follow the SMILES beside them. 2Nal = N[C@@H](Cc1ccc2ccccc2c1)C(=O)O

Test system: MN-11 cells
Experiment: Extracellular cytochrome c ELISA, MN-11
Assay type: cell-based, murine
Procedure: The cells were treated with 2× IC50 Nal-P-113 (FIG. 8A), Bip-P-113 (FIG. 8B), and Dip-P-113 (FIG. 8C) for 0.5, 1, 1.5, 2, and 4 h, respectively. Untreated cells were used as a control. Results are presented as mean ± SD of three independent experiments. **P<0.01; ***P<0.001 compared with control.
Not only that the amount of supernatant cytochrome c release from MN-11 cells was measured by ELISA assay to reveal peptide induced mitochondrial DAMPs. Five time points (0.5, 1, 1.5, 2 and 4 hours) were used to quantify the amount of cytochrome c released and the results were shown in FIGS. 8A-8C. Nal-P-113 (FIG. 8A) and Dip-P-113 (FIG. 8C) induced a relatively high amount of cytochrome c compared to Bip-P-113 (FIG. 8B). In the Nal-P-113 (FIG. 8A) treated group, the amount of cytochrome c release has come to a maximal value of nearly 25 ng/mL at 2 hours while the minimum value of 10 ng/mL at 30 minutes has been observed. The highest amounts of cytochrome c detected in the supernatant for Dip-P-113 (FIG. 8C) was around 35 ng/mL at 4 hours and the lower amount around 18 ng/mL at 30 minutes.

Structure (SMILES): CC(=O)N[C@@H](C)C(=O)N[C@@H](CCCCN)C(=O)N[C@@H](CCCNC(=N)N)C(=O)N[C@@H](Cc1ccc2ccccc2c1)C(=O)N[C@@H](Cc1ccc2ccccc2c1)C(=O)NCC(=O)N[C@@H](Cc1ccc(O)cc1)C(=O)N[C@@H](CCCCN)C(=O)N[C@@H](CCCNC(=N)N)C(=O)N[C@@H](CCCCN)C(=O)N[C@@H](Cc1ccccc1)C(=O)N[C@@H](Cc1ccc2ccccc2c1)C(N)=O [SEQ ID NO:3, Ac-AKR Nal Nal GYKRKFNal-NH2] (Ac-AKR[2Nal][2Nal]GYKRKF[2Nal]-NH2)
- cytochrome c release, minimum / lower amount (MN-11, 2× IC50, at 30 minutes): 10 ng/mL
- cytochrome c release, maximal value (MN-11, 2× IC50, at 2 hours): ~25 ng/mL
